According to patent EP0452101B1, “Spiro bridged and unbridged heterocyclic compounds” (ISRAEL INSTITUTE FOR BIOLOGICAL RESEARCH, priority 1990, dated 1991):
pEC50, pKi: −log10 of the molar value. Like-named read-outs stand apart in the source and are kept apart here.

Tests used:
m1 receptors = target: T1, m1 receptors (Rattus norvegicus, UniProt P08482); experiment: PI hydrolysis in CHO cells transfected with m1 receptors; type: cell-based; conditions: for pEC50: CHO m1, PI hydrolysis; for PI (phosphoinositides hydrolysis): tested at 1mM
T1 construct: expressed in transfected cells; host or cells: CHO cells
T1 sequence (P08482 1-460): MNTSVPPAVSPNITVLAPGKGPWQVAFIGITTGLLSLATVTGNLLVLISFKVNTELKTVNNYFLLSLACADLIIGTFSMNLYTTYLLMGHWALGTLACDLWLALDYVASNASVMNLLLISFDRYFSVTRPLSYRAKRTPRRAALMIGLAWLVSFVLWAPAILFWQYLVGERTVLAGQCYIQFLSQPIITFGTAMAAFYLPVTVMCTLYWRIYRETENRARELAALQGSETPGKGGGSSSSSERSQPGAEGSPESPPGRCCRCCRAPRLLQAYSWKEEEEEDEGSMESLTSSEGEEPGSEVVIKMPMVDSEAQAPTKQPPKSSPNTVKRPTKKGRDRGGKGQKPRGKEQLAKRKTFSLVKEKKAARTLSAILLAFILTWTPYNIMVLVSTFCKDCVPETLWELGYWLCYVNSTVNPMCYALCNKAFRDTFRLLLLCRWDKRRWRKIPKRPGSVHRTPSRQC

M1 muscarinic receptor = target: T2, M1 muscarinic receptor (Rattus norvegicus, UniProt P08482); experiment: Displacement of 3H-PZ from cortical binding sites, Tris/Mn buffer, with and without GppNHp; parameters: from tissue; host or cells: rat cerebral cortex homogenates; conditions: for KL-G / KH-G: ratio of low and high affinities without GppNHp
T2 sequence (P08482 1-460): T1 sequence (P08482 1-460)
Description: The binding of agonists to M1 muscarinic receptors and the effect of guanylyl imidophosphate (GppNHp). Agonists are known to be coupled with guanine nucleotide binding proteins (G proteins).
Non-hydrolyzable guanine nucleotides such as GppNHp dissociate the G protein from the receptor and decrease the affinity of the receptor for agonists but not for antagonists. […] Molec.
Under these conditions agonists of high efficacy ("full agonists") bind directly to the M1 receptor subtype with two affinities. […] The ratio of low and high affinities (KL/KH) of the M1 receptor may predict the relative efficacies of agonists to activate putative M1 receptor-mediated second messenger systems.
KH, KL, %H and %L are the apparent inhibition constants of the tested ligands for the high and low affinity sites, respectively. G is GppNHp (guanylyl imidodiphosphate), and was used in 0.1 mM concentration. Displacement of ^3H-PZ from cortical binding sites was performed in Tris/Mn buffer (pH 7.4) for one hour at 25°C; the buffer included 1 mM EDTA and 2mM Mn^++ ions. […] The binding data were analyzed using a GraphPAD program and were fitted to one or two components. Values are means from 1-3 experiments carried out in triplicates.

[1] = tested on: rat cerebral cortex synaptosomes; experiment: Synaptosomal 3H-ACh release, basal and K+-evoked
Description: The effects of AF150 (and for comparison purposes, AF125, MeN-A-343 and oxotremorine) on basal- and K^+-evoked release of ^3H-ACh were studied on synaptosomes prepared from rat cerebral cortex using the methods described in detail by Pittel et al (J. Neurochem., 55: 665-672, 1990). […] On the other hand, the action of AF150 on presynaptic muscarinic receptors, causing an increase in K^+-evoked ACh release, can be considered either as an M2 antagonistic or an M1 agonistic effect. […] The existence of muscarinic autoreceptors that increase ACh release was manifested also in the PNS in smooth muscle preparation (Kilbinger and Nafziger, Naunyn Schmiedebergs Arch. Pharmacol. 328: 304-309, 1985).

[2] = target: T3, m4 subtype receptors (PC12 cells) (Rattus norvegicus, UniProt P08485); experiment: Inhibition of adenylate cyclase activity in PC12 cells; type: cell-based; conditions: for pEC50: PC12 m4, AC activity; for AC (adenylate cyclase activity): PC12 m4, tested at 1mM
T3 construct: endogenous in cells; host or cells: PC12 cells
T3 sequence (P08485 1-478): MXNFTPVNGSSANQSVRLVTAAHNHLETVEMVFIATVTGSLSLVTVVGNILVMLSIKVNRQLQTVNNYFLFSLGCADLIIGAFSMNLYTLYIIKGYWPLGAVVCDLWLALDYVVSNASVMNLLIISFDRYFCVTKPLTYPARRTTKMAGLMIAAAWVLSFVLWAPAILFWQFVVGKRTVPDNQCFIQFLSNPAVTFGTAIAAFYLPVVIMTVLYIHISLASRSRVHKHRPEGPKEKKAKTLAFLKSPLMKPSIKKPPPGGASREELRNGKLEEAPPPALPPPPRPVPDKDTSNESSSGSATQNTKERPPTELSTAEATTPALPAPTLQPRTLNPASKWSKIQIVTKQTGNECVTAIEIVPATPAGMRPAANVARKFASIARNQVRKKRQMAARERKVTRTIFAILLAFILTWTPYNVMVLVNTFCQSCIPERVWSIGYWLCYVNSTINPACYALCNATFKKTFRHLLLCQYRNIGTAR
Procedure: The new compounds AF150, AF151, AF150(S) and AF125 were assayed for their ability to stimulate PI in CHO cells transfected with m1 and m3 receptors, respectively (Buck and Fraser, loc cit), and in cultured human neuroblastoma cells, line SK-N-SH, which express mainly the m3 subtype, but not the m1 subtype (Pinkas-Kramarski et al, Neurosci. Lett. 188: 335-340, 1990; Luthin et al Mol. Pharmacol. 34: 327-333, 1988). These compounds were also assayed on cultured PC12 cells which express mainly m4 subtype receptors and are coupled to inhibition of AC activity (Pinkas-Kramarski et al, loc cit).
Stimulation of PI breakdown was assayed using the method described by Stein et al (EMBO J. 7: 3031-3035, 1988), and modulation of AC activity was assayed by the method of Stein et al, loc cit and Pinkas-Kramarski et al (FEBS Lett., 239: 174-178, 1988). […]

[3] = +G (0.1 mM GppNHp), read-out: KH
[4] = +G (0.1 mM GppNHp), read-out: KL
[5] = -G (without GppNHp), read-out: KH

In the case of `CC1=NCC2(CN3CCC2CC3)O1` (racemic) [AF125, 2-Methyl-spiro(1,3 oxazoline-5,3')quinuclidine], the “PI, % of carbachol effect” value (m1 receptors; CHO m1) was 14%, the pKi (M1 muscarinic receptor; [3]) was 5.05 and the pKi (M1 muscarinic receptor; [4]) was 4.92. For the same compound, the pKi (M1 muscarinic receptor; [5]) was 5.05, the pKi (M1 muscarinic receptor; -G, read-out: KL) was 4.92 and the “K+-evoked 3H-ACh release” value ([1]; 1.0 mM) was 78±9 (2) %.
In the case of `CC1=NC2(CCN(C)CC2)CO1` [AF151, 1-methylpiperidine-4-spiro-4'-(2'-methyl-1',3'-oxazoline)], the pEC50 (m1 receptors) was 4.27, the “PI (phosphoinositides hydrolysis)” value (m1 receptors; CHO m1) was “+++” and the pEC50 [2] was 6.00. The “AC (adenylate cyclase activity)” value [2] was “+++”, the “% H” value (M1 muscarinic receptor; +G (0.1 mM GppNHp)) was 17% and the “%L” value (M1 muscarinic receptor; +G (0.1 mM GppNHp)) was 83%. For the same compound, the pKi (M1 muscarinic receptor; [3]) was 5.34, the pKi (M1 muscarinic receptor; [4]) was 4.23 and the “% H” value (M1 muscarinic receptor; -G) was 39%. For the same compound, the “%L” value (M1 muscarinic receptor; -G) was 61%, the pKi (M1 muscarinic receptor; [5]) was 5.43 and the pKi (M1 muscarinic receptor; -G, read-out: KL) was 5.32. The “KL-G / KH-G” value (M1 muscarinic receptor) was 13.
With `CC1=NCC2(CCN(C)CC2)O1` [AF150, 2-Methyl-spiro(1,3-oxazoline-5,4')-1'-methylpiperidine] the pEC50 (m1 receptors) was 4.89, the “PI (phosphoinositides hydrolysis)” value (m1 receptors; CHO m1) was “+++” and the pEC50 [2] was 6.00. The “AC (adenylate cyclase activity)” value [2] was “+++”, the “%L” value (M1 muscarinic receptor; +G (0.1 mM GppNHp)) was 100% and the pKi (M1 muscarinic receptor; [4]) was 4.68. The “% H” value (M1 muscarinic receptor; -G) was 21%, the “%L” value (M1 muscarinic receptor; -G) was 83% and the pKi (M1 muscarinic receptor; [5]) was 6.96. For the same compound, the pKi (M1 muscarinic receptor; -G, read-out: KL) was 4.96, the “KL-G / KH-G” value (M1 muscarinic receptor) was 100 and the “Basal 3H-ACh release” value ([1]; 0.1 mM) was 121%. For the same compound, the “K+-evoked 3H-ACh release” value ([1]; 0.1 mM) was 110% and the “K+-evoked 3H-ACh release” value ([1]; 1.0 mM) was 115±4 (6) p<0.01%.
